Assay results: US6670187B2, “Mutant Plk protein and gene encoding the same” (Riken, priority 2000, dated 2003)
Peptide text beside a SMILES is read from it. * marks the point of attachment. Cbz = O=C(OCc1ccccc1)*

Key:
[1] = tested on: Plk protein; test: Western blotting of Plk protein level after geldanamycin treatment; type: cell-based, human; conditions: for Sensitivity of Plk to GA: Western blotting
Description: The cells were lysed with TENSV buffer (Schulte, T. W., et al., J. Biol. Chem., 270, 24585-24588, 1995; Hutchison, K. A., et al., J. Biol. Chem., 267, 13952-13957, 1992) at 4° C. with sonication. The lysates were subjected to electrophoresis on an SDS polyacrylamide gel. Proteins were transferred to Immobilon PVDF membrane (Millipore) and immunoblotted with anti-Plk antibody (Zymed and Santa Cruz), anti-Hsp90 antibody (AC88; Stressgen), anti-GST antibody (Santa Cruz), anti-α-tubulin antibody (Amersham), or anti-Raf-1 antibody (Santa Cruz). Detection was performed with an enhanced chemiluminescence reagent (Pierce).
The immune complexes were collected by immunoprecipitation using anti-Plk antibody and electrophoresed on an SDS-polyacrylamide gel. […] Aliquots of cell lysates were immunoprecipitated with an anti-Plk or anti-Hsp90 antibody. In the same manner, aliquots of non-immunoprecipitated cell lysates were used for Western blotting.
Aliquots of cell lysates were immunoblotted with the indicated antibodies.

[2] = tested on: U937 cells; test: Cell viability of geldanamycin-treated U937 cells; type: cell-based, human; conditions: 100 nM
[3] = tested on: Hsp90; test: In vitro binding assay of GST-fused Plk proteins with HL-60 lysate, Hsp90 detected; parameters: species or system human; conditions: 1 μg GST-fused protein, Western blotting
Description: (§1) The PCR products were cloned into pGEM-T Easy vector (Promega) and nucleotide sequence analysis was carried out by using the dideoxynucleotide chain-termination procedure with an Applied Biosystems automated sequencer. The sequence was confirmed to be identical with a previous report (Golsteyn, R., et al., J. Cell Sci., 107, 1509-1517, 1994). Plk cDNA was inserted into pGEX-2T, and GST-fused Plk was expressed in DH5α with 0.1 mM isopropyl β-D-thiogalacto-pyranoside.
(§2) For the binding assay, 1 μg of GST-fused proteins was incubated with the lysate of HL-60 cells (1 mg) in TENSV buffer. GST-fused Plk proteins were precipitated with glutathione-agarose (Sigma). Hsp90 or α-tubulin associated with GST-fused Plk proteins was detected by Western blotting using an anti-Hsp90 or anti-α-tubulin antibody.
(§3) The circle stands for the GST protein, the dotted bar for the kinase domain (residues 53-305) and the black box for the polo-box (residues 410-439). b; GST-fused Plks, expressed in Escherichia coli, were collected with glutathione-agarose, and incubated with the lysate of HL-60 cells. After incubation, GST-fused Plks were precipitated with glutathione-agarose. Hsp90 or α-tubulin associated with GST-fused Plks was detected by Western blotting using an anti-Hsp90 or anti-α-tubulin antibody.

[4] = tested on: α-tubulin; test: In vitro binding assay of GST-fused Plk proteins with HL-60 lysate, α-tubulin detected; parameters: species or system human; conditions: 1 μg GST-fused protein, Western blotting
Description: as §1, §2, §3

COC1=C2C[C@@H](C)C[C@H](OC)[C@H](O)[C@@H](C)/C=C(\C)[C@H](OC(N)=O)[C@@H](OC)/C=C\C=C(/C)C(=O)NC(=CC1=O)C2=O [geldanamycin]
Sensitivity of Plk to GA ([1]; A431 cells, Plk S487G, P509S): −
Sensitivity of Plk to GA ([1]; A549 cells, Plk D457G): −
Sensitivity of Plk to GA ([1]; HL-60 cells, wt Plk): + (Plk protein decreased after GA treatment.)
Sensitivity of Plk to GA ([1]; HeLa cells, wt Plk): + (Plk protein decreased after GA treatment.)
Sensitivity of Plk to GA ([1]; Hep G2 cells, Plk N496S, R512W): −
Sensitivity of Plk to GA ([1]; Jurkat cells, wt Plk): + (Plk protein decreased after GA treatment.)
Sensitivity of Plk to GA ([1]; K562 cells, wt Plk): + (Plk protein decreased after GA treatment.)
Sensitivity of Plk to GA ([1]; MKN74 cells, Plk E569K): −
Sensitivity of Plk to GA ([1]; U937 cells, wt Plk): + (Plk protein decreased after GA treatment.)
cell viability ([2]; 12 hours): without decreasing cell viability
cell viability (majority of cells died) ([2]; after 2 days): 15.4±3.2%

CC(C)C[C@@H](C=O)NC(=O)[C@H](CC(C)C)NC(=O)[C@H](CC(C)C)NC(=O)OCc1ccccc1 [MG132] (Cbz-Leu-Leu-Leu-aldehyde)
geldanamycin-induced destabilization of Plk protein ([1]; co-treatment with proteasome inhibitor): inhibited

K82R: GST-fused kinase negative Plk mutant
binding to Hsp90 [3]: can bind

Plk/A431: GST-fused mutant Plk from A431 cells (S487G, P509S in C-terminus)
binding to Hsp90 [3]: unable to bind
association of tubulin with Plk [4]: little effect

Plk/Hep G2: GST-fused mutant Plk from Hep G2 cells (N496S, R512W in C-terminus)
binding to Hsp90 [3]: unable to bind
association of tubulin with Plk [4]: little effect

full-length Plk: GST-fused human full-length wild-type Plk expressed in Escherichia coli
binding to Hsp90 [3]: can bind
